Assay results as given in patent US20050215433A1, “Aromatic fluid as agricultural solvent” (priority 2004, published 2005).

Key:
Assay type in all cases: physicochemical
[1] = Solubility of pesticide in the solvent (highest concentration without crystallization); conditions: no crystals after seeding; for Solubility in Weight %: Bromoxynil Octanoate: pesticide Bromoxynil Octanoate dissolved in the solvent; for Solubility in Weight %: Chlorpyrifos: pesticide Chlorpyrifos dissolved in the solvent; for Solubility in Weight %: Pendimethalin: pesticide Pendimethalin dissolved in the solvent; for Solubility in Weight %: Permethrin: pesticide Permethrin dissolved in the solvent; for Solubility in Weight %: Trifluralin: pesticide Trifluralin dissolved in the solvent
Description: Solubility was determined by adding a predetermined weight of pesticide to a vial and then adding the solvent to within 10 grams to make the appropriate concentrations. Several different concentrations were made. […] The vials were capped and inverted several times to completely dissolve the pesticide. If the pesticide was not completely dissolved, the vials were placed in a beaker filled with warm water until the pesticide dissolved. The water was not heated closer than 30° C. of the flash point of the solvent being tested. The vial was removed from the heated beaker and was left to stand for 3 hours at room temperature. The vial was then placed into a chiller, an ethylene glycol bath, if a lower temperature was desired. […] If crystals were present, the solutions in the vials were diluted, the vials were inverted several times, the vials were either heated or cooled, and the vials were checked for crystals. The vials were allowed to stand for 24 hours and were then rechecked for crystals. If crystals were still absent after 24 hours, one crystal of pesticide was added to the vial (seeding) and the vial was inverted several times to assure the crystal was dissolved. The vial was left to stand for 48 hours and rechecked for crystals. If crystals were present, the solution was diluted further and the previous steps were repeated until no crystals appeared after seeding. […] The test was started again at the beginning with higher concentrations of the pesticide in the solvent.

[2] = Mixed Aniline Point, variation of ASTM D-611-82; conditions: 10 milliliters aniline + 5 milliliters sample + 5 milliliters n-heptane
Description: For the Mixed Aniline Point, 10 milliliters of aniline was added to a test tube. The test tube was fitted with a suitable stirrer and thermometer. The thermometer was centered in the test tube and some padding was kept at the base of the stand to avoid breakage of the test tube if it slipped. […] Added to the test tube containing aniline was 5 milliliters of sample and 5 milliliters of n-heptane. The test tube was placed into a cooling bath of isopropyl alcohol and dry ice. The mixture was continuously stirred rapidly using 2 inch strokes, avoiding introduction of air bubbles. The mixture was allowed to cool below the first appearance of turbidity and the Mixed Aniline Point was recorded.

[3] = Kauri Butanol Value, variation of ASTM D-1133-02; conditions: 20 grams kauri-butanol solution titrated with the solvent
Description: Kauri Butanol Value was determined by a variation of ASTM D-1133-02. In a […] Erlenmeyer flask, 20 grams (±0.1 grams) of kauri-butanol solution was added. The flask was placed in a water bath at 20° C. (±1° C.). A 50-milliliter burette was filled with the solvent being tested. The standardized kauri-butanol solution was titrated with the solvent being tested until the end point was reached. A photocopy of the residence listings from a telephone book was used as the 10 point print sample placed directly beneath the water bath. The tester looked through the liquid at the print to observe the end point. […] The volume in milliliters of solvent added to the flask to produce turbidity was recorded. The kauri-butanol values were calculated using the following formula: Kauri-Butanol value=[65(C−B)/(A−B)]+40 (1) where A is the milliliters of toluene required to titrate 20 grams of kauri-butanol solution (the A factor should be on the certificate of analysis that accompanies the standardized kauri-butanol solution); • B is the milliliters of n-heptane-toluene blend required to titrate 20 grams of kauri butanol solution (the B factor should be on the certificate of analysis that accompanies the standardized kauri-butanol solution); and • C is the milliliters of solvent being tested that are required to titrate 20 grams of kauri-butanol solution. […]

Cc1cc(C)cc(C(C)(C)C)c1 [Example 5, 5-ter-Butyl-m-Xylene]
Solubility in Weight %: Bromoxynil Octanoate [1]: 61 Weight %
Solubility in Weight %: Chlorpyrifos [1]: 65 Weight %
Solubility in Weight %: Pendimethalin [1]: 35 Weight %
Solubility in Weight %: Permethrin [1]: 65 Weight %
Solubility in Weight %: Trifluralin [1]: 50 Weight %
Mixed Aniline Point [2]: 28 °C
Kauri-Butanol Value [3]: 66

CN1CCCC1=O [Example 10, 1-Methyl-2-Pyrrilidinone]
Solubility in Weight %: Bromoxynil Octanoate [1]: 75 Weight %
Solubility in Weight %: Chlorpyrifos [1]: 80 Weight %
Solubility in Weight %: Pendimethalin [1]: 55 Weight %
Solubility in Weight %: Permethrin [1]: 75 Weight %
Solubility in Weight %: Trifluralin [1]: 70 Weight %

CCCCCCCCCCCCc1ccccc1 [Example 17, Dodecyl Benzene]
Solubility in Weight %: Bromoxynil Octanoate [1]: 40 Weight %
Solubility in Weight %: Chlorpyrifos [1]: 50 Weight %
Solubility in Weight %: Pendimethalin [1]: 20 Weight %
Solubility in Weight %: Permethrin [1]: 45 Weight %
Solubility in Weight %: Trifluralin [1]: 25 Weight %
Mixed Aniline Point [2]: 43 °C
Kauri-Butanol Value [3]: 36

Dipentylindan [Example 12]
Solubility in Weight %: Bromoxynil Octanoate [1]: 25 Weight %
Solubility in Weight %: Chlorpyrifos [1]: 40 Weight %
Solubility in Weight %: Pendimethalin [1]: <15 Weight %
Solubility in Weight %: Permethrin [1]: 50 Weight %
Solubility in Weight %: Trifluralin [1]: <15 Weight %

Monopentylindan [Example 11]
Solubility in Weight %: Bromoxynil Octanoate [1]: 50 Weight %
Solubility in Weight %: Chlorpyrifos [1]: 60 Weight %
Solubility in Weight %: Pendimethalin [1]: 25 Weight %
Solubility in Weight %: Permethrin [1]: 65 Weight %
Solubility in Weight %: Trifluralin [1]: 35 Weight %
